Consider 1 compound from patent publication US20240417798A1, “THERAPY SELECTION AND TREATMENT OF NEURODEGENERATIVE DISORDERS” (Anavex Life Sciences Corp., priority 2021, published 2024).

In data set [1] the test system is patients with Parkinson's Disease Dementia (PDD). Briefly: Phase 2 ANAVEX2-73-PDD-001 study, randomized, double blind, placebo-controlled, oral capsules once daily for 14 weeks. It counts as in vivo, human. As for the experimental part:
In order to assess the safety, tolerability and efficacy of ANAVEX®2-73 (blarcamesine) oral capsules in treating cognitive impairment in patients with Parkinson's Disease with Dementia (PDD), a phase 2 study, coded “ANAVEX®2-73-PDD-001 study” (FIG. 1), was conducted. The study was multi-center, randomized, double blind, placebo-controlled, parallel group with 3-arm. The study included a 2-week Screening/Baseline Observation Period and a 14-week Treatment Period (including a 2 week Titration Period), and a 2-week Safety Follow-Up Period. A total of 132 patients were enrolled in the study and were randomly assigned to three testing arms (FIG. 1). In ANAVEX2-73 High Dose arm, 44 patients were given oral capsules of ANAVEX2-73 once daily in an escalating dose of 10 mg, 20 mg, 30 mg and 50 mg. In ANAVEX2-73 Mid Dose arm, 44 patients were given oral capsules of ANAVEX2-73 once daily in an escalating dose of 10 mg, 20 mg, and 30 mg. In placebo group, 44 patients were given placebo capsules. Outcome measures included Cognitive Drug Research (CDR) Computerized Assessment System on Continuity of Attention; Change from Baseline to End of Treatment in Continuity of Attention as measured by Cognitive Drug Research (CDR) Computerized Assessment System Continuity of Attention; Number of participants with treatment-related adverse events as assessed by CTCAE v4.0 [Time Frame: 14 weeks]; Assessment of the safety and tolerability of ANAVEX2-73 compared to placebo; MDS-UPDRS Part III Total Score (Motor Scores); Change from baseline to End of Treatment as measured by MDS-UPDRS Part III Total Score (Motor Scores); SDS-CL-25 [Time Frame: 14 weeks]; Incidence of sleep disorders symptoms (SDS-CL-25); and DNA/RNA Sequencing.
The trial enrolled 132 adults, ages 50-85, with PDD, and was successfully concluded in September 2020. Participants, recruited at multiple sites in Spain and Australia, were randomly assigned to one of two doses groups (with an escalating ANAVEX 2-73 dose up to 30 or 50 mg oral capsules) or to a placebo, once daily for 14 weeks (see FIG. 1 for details). The trial's main goals were to assess the therapy's safety and changes in patients' cognitive function, measured using the cognitive drug research computerized assessment system—a test that looks at multiple cognitive skills, such as choice reaction time (choosing between similar objects), vigilance, and episodic memory (remembering new personal experiences or shared information). Secondary goals included changes in patients' motor abilities—assessed with the Movement Disorders Society Unified Parkinson's Disease Rating Scale (MDS-UPDRS) Part III—and sleep quality. […] This sleep disorder is associated with greater cognitive impairment and a higher risk of dementia. […]

For data set [2], the target named is T1, Sigma-1 receptor (SIGMAR1) (Homo sapiens, UniProt Q99720).
T1 construct: host or cells: in vivo PET scan
As to conditions: quantitative PET scan; cited from earlier work.

Data set [3] deals with gene clusters (Cluster 1, Cluster 2) of neurodegenerative pathways. Briefly: Whole Blood Transcriptomics Analysis (RNAseq) of PDD patients, baseline vs Week 14, WGCNA gene clusters and pathway analysis. The format is in vivo, human. As to the method:
In order to gain insights into ANAVEX 2-73 response pathways, during the Phase 2 study, patients' DNA and RNA sequencing were analyzed. Transcriptomic samples of 65 patients enrolled in either High Dose or Mid Dose arms were collected at baseline and at the end of treatment (Week 14). The expression of 14,150 genes was measured. No transformation was applied to the TPM values. Values associated with a with RIN≤4.0 were discarded. The actual dose of ANAVEX 2-73 (blarcamesine) that was given to each patient during the trial was assessed and integrated into the database. […]
The genes were clustered together using WGCNA, starting from their correlation of TPM expression values across samples. […] For each cluster, the contrast ActualDose, i.e. treated vs placebo were evaluated across all timepoints. […] The ratio between cluster size and number of pathways was calculated, and top 2 clusters were retained for further Analysis. […] Known interactions between the genes of the cluster were assessed using STRING database with the parameters of Edge score >0.150, and no text mining edges. […]
Whole Blood Transcriptomics Analysis (RNAseq) of patients with Parkinson's disease dementia (PDD) was performed for the ANAVEX®2-73-PDD-001 study (FIG. 1) at two timepoints: Baseline and Week 14 (end of trial). All available RNA samples with […] (RNA integrity number, using 130 samples) were analyzed. […]

Data set [4] has as its system patients with Parkinson's Disease Dementia (PDD). As to conditions: previously reported results; cited from earlier work.
Data set [5] concerns SIGMAR1. The data set is described as follows: SIGMAR1 levels in patients of the PDD-001 trial. As to conditions: use by PDD patients; rise associated with improved attention measures and reduced MDS-UPDRS total and Part III. It counts as in vivo, human. As to the method: The trial enrolled 132 adults, ages 50-85, with PDD, and was successfully concluded in September 2020. Participants, recruited at multiple sites in Spain and Australia, were randomly assigned to one of two doses groups (with an escalating ANAVEX 2-73 dose up to 30 or 50 mg oral capsules) or to a placebo, once daily for 14 weeks (see FIG. 1 for details). The trial's main goals were to assess the therapy's safety and changes in patients' cognitive function, measured using the cognitive drug research computerized assessment system—a test that looks at multiple cognitive skills, such as choice reaction time (choosing between similar objects), vigilance, and episodic memory (remembering new personal experiences or shared information). Secondary goals included changes in patients' motor abilities—assessed with the Movement Disorders Society Unified Parkinson's Disease Rating Scale (MDS-UPDRS) Part III—and sleep quality. […] This sleep disorder is associated with greater cognitive impairment and a higher risk of dementia. […] After 14 weeks, the MDS-UPDRS total score dropped by 10.98 points (indicating an easing in disease severity) in the high-dose group and rose by 3.53 points in the placebo group. This represented an adjusted mean improvement of 14.51 points—surpassing the established, clinically meaningful 7.1 point-cut-off—and a relative improvement of 18.9% over 14 weeks. […]

T1 sequence (Q99720 whole entry, species assumed): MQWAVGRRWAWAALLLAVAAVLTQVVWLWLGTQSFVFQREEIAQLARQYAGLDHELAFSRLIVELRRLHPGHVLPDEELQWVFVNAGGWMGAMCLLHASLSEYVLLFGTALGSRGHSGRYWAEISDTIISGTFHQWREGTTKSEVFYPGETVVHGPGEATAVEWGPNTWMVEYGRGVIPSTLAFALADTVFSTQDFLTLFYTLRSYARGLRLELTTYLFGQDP

Regarding `CN(C)CC1CCOC1(c1ccccc1)c1ccccc1.Cl` (centres unmarked) [ANAVEX 2-73, tetrahydro-N, N-dimethyl-2,2-diphenyl-3-furanmethanamine hydrochloride], the “Cognitive and sleep benefits, current trial data” value in data set [1] (data obtained from the current trial) was “confirmed these cognitive and sleep benefits”. Also, the “MDS-UPDRS total score, adjusted mean improvement vs placebo” value in data set [1] (high dose (50 mg), 14 weeks, clinically meaningful cut-off 7.1 points) was found to be 14.51 points. Also, in data set [1] (high dose (50 mg), over 14 weeks), the “MDS-UPDRS total score, relative improvement” value is 18.9%. Also, the “MDS-UPDRS total score, drop from baseline (easing in disease severity)” value in data set [1] (high-dose group (50 mg), after 14 weeks) came out at 10.98 points. Further, the “Direct occupancy at SIGMAR1” value in data set [2] was “has been established”. Moreover, in data set [3] (after 14 weeks of treatment), the “Expression of both identified gene clusters, treated patients compared to placebo” value is given as “up-regulated”. Moreover, the “Dysregulations of Cluster 1 and Cluster 2, link to dose” value in data set [3] (linear mixed effect model, Dunnett's test) is “significantly linked to the highest dose”. In addition, in data set [4], the Cognitive skills entry is recorded as “significantly improved several cognitive skills”, the “REM sleep behavior disorder” value is reported as “lessened REM sleep behavior disorder” and the Safety entry is listed as “generally safe”. Moreover, the SIGMAR1 levels result in data set [5] is “significant increase in SIGMAR1 levels”.
